Data on three molecules can be found in patent US20220062278A1, “SMALL MOLECULE INHIBITORS OF THE ANDROGEN RECEPTOR ACTIVITY AND/OR EXPRESSION AND USES THEREOF” (Arizona Board of Regents on Behalf of the Univeristy of …, priority 2018, published 2022).

The target of the assay is T1, AR (Homo sapiens, UniProt P10275).
T1 sequence (P10275 669-920 limits assumed): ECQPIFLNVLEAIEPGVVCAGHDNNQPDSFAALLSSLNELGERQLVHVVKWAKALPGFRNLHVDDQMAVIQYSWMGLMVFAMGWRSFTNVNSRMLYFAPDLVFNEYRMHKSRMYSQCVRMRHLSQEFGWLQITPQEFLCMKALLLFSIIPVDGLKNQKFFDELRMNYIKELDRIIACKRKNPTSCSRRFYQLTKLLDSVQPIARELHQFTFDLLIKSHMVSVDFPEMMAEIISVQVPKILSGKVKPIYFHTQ
In words: GeneBlazer assay, inhibition against AR activity. Format: cell-based. The settings on record: Table II. The text has this:
Tables II, III and IV show % inhibition against AR activity at 10 μm within a GeneBlazer assay, and IC50 values (nM) in GeneBlazer assay.

For `CC(C)(C)n1nnnc1C(CCc1ccccc1)N1CCN(c2c(Cl)cncc2Cl)CC1` (centres unmarked) [Compound 70, 1-(1-(1-(tert-butyl)-1H-tetrazol-5-yl)-3-phenylpropyl)-4-(3,5-dichloropyridin-4-yl)piperazine], the inhibition at 10 µM turned out to be 109% and it took 1280 nM to reach half-maximal inhibition (IC50).

On to `CCCCn1nnnc1C(c1cccc(O)c1)N1CCN(C/C=C/c2ccccc2)CC1` (centres unmarked) [Compound 71, (E)-3-((1-butyl-1H-tetrazol-5-yl)(4-cinnamylpiperazin-1-yl)methyl)phenol], for which the inhibition at 10 µM was 11.9%.

Turning to `CCCCn1nnnc1C(c1cccc(O)c1)N1CCN(c2cc(C)ccc2C)CC1` (centres unmarked) [Compound 72, 3-((1-butyl-1H-tetrazol-5-yl)(4-(2,5-dimethylphenyl)piperazin-1-yl)methyl)phenol], the inhibition at 10 µM was found to be 112% and it took 790 nM to reach half-maximal inhibition (IC50).
